Columns and labels:
[1] = thermodynamic aqueous solubility measured in water
[2] = stability in aqueous media; type: physicochemical; details: 0.2 mg/ml; for stability in aqueous media (in words): 50° C. and room temperature; for Stability in aqueous media (24 hrs at 50° C.) / Stability in aqueous media (24 hrs at room temperature): sodium salt in water, free acid in 1:1 water and acetonitrile; for Stability in aqueous media (24 hrs at 50° C.): amber vial
Experimental: To measure the stability in aqueous media, the sodium salt was dissolved in water at a concentration of 0.2 mg/ml. Due to the very poor aqueous solubility of the free acid, the free acid was dissolved in a 1:1 mixture of water and acetonitrile at the same concentration of 0.2 mg/ml. Samples were kept at 50° C. in an amber vial and at room temperature in an amber vial as well as a clear vial.

[3] = intrinsic dissolution rate (US Pharmacopoeia, chapter 1087); type: physicochemical
Experimental: The intrinsic dissolution rate was measured by the procedure set out in the US Pharmacopoeia, chapter 1087.

physchem = details: water, thermodynamic from solid
[4] = XRPD after storage at elevated temperature and humidity (stability of polymorphic form); type: physicochemical
Experimental: X-Ray Powder Diffraction (XRPD), Ion Chromatography (IC), Karl Fischer titration (KF), Thermogravimetric Analysis (TGA), Differential Scanning Calorimetry (DSC) and high performance liquid chromatography (HPLC) techniques referred to in the examples were carried out under the following conditions: XRPD diffractograms were collected on a Bruker D8 diffractometer using CuKα radiation (40 kV, 40 mA) and a θ-2θ goniometer fitted with a Ge monochromator. The incident beam passed through a 2.0 mm divergence slit followed by a 0.2 mm antiscatter slit and knife edge. The diffracted beam passed through an 8.0 mm receiving slit with 2.5° Soller slits followed by the Lynxeye Detector. The software used for data collection and analysis was Diffrac Plus XRD Commander and Diffrac Plus EVA respectively. Samples were run under ambient conditions as flat plate specimens using powder as received. The sample was prepared on a polished, zero-background (510) silicon wafer by gently pressing onto the flat surface or packed into a cut cavity.
The XRPD spectra shown in FIG. 1 were obtained directly after preparation of the product, after storage for 1 week and for 5 weeks at 40° C. and 75% relative humidity, and after storage for 1 week and for 5 weeks at 25° C. and 97% relative humidity.
The XRPD spectra shown in FIG. 3 were obtained directly after preparation of the product, after storage for 1 week at 40° C. and 75% relative humidity, and after storage for 1 week at 25° C. and 97% relative humidity.

Compound	Aqueous Solubility ([1]; thermodynamic, in water)	solubility ([1]; water, thermodynamic from solid)	stability in aqueous media (in words) [2]	Stability in aqueous media (24 hrs at 50° C.) [2]	Stability in aqueous media (24 hrs at room temperature) [2]	Intrinsic dissolution rate (at pH 2) [3]	solubility (physchem)	resulting pH of aqueous solution ([1]; in water at solubility of 81 mg/ml)	stability with respect to conversion into other polymorphic forms (XRPD) ([4]; storage 1 week and 5 weeks at 40° C. and 75% relative humidity, and 1 week and 5 weeks at 25° C. and 97% relative humidity)	intrinsic dissolution rate relative to that of the free acid ([3]; sodium salt versus free acid)	polymorphic form stability on storage at elevated humidity (XRPD) ([4]; 1 week at 25° C. and 97% relative humidity)	polymorphic form stability on storage at elevated temperature (XRPD) ([4]; 1 week at 40° C. and 75% relative humidity)
CC(C)n1ccc(S(=O)(=O)NC(=O)Nc2c3c(cc4c2CCC4)CCC3)n1 [Comparative Example 1, N-((1,2,3,5,6,7-hexahydro-s-indacen-4-yl)carbamoyl)-1-isopropyl-1H-pyrazole-3-sulfonamide free acid, reference compound]	<0.5 mg/mL	< 0.5 mg/mL	unstable	94% degradation	37% degradation	4 μg/min · mm^2	–	–	–	–	–	–
CC(C)n1ccc(S(=O)(=O)NC(=O)Nc2c3c(cc4c2CCC4)CCC3)n1.O.[Na] [Example 2, N-((1,2,3,5,6,7-hexahydro-s-indacen-4-yl)carbamoyl)-1-isopropyl-1H-pyrazole-3-sulfonamide monosodium monohydrate]	–	–	stable in aqueous media	2.7% degradation	No significant	10 μg/min · mm^2	81 mg/mL	9.7	shows stability with respect to conversion into other polymorphic forms	at least twice as high	–	–
CC(C)n1ccc(S(=O)(=O)NC(=O)Nc2c3c(cc4c2CCC4)CCC3)n1.[Na] [Example 3, N-((1,2,3,5,6,7-hexahydro-s-indacen-4-yl)carbamoyl)-1-isopropyl-1H-pyrazole-3-sulfonamide monosodium anhydrate]	–	–	–	–	–	–	–	–	–	–	converts to the monosodium monohydrate (Form 1)	stable at elevated temperature

From patent US10973803B2, “Sodium salt of N-((1,2,3,5,6,7-hexahydro-s-indacen-4-yl)carbamoyl)-1-isopropyl-1H-pyrazole-3-sulfonamide” (INFLAZOME LIMITED, priority 2018, dated 2021)
